Measured values reported in the supplement of paper PMC10307832.

How the values were obtained:
Assay in all cases: relative viability (nuclei count vs DMSO), 5 days (fraction); higher = more cells survive
Tivantinib + Palbociclib = compound: O=C1NC(=O)[C@@H](c2cn3c4c(cccc24)CCC3)[C@@H]1c1c[nH]c2ccccc12 [Tivantinib] + CC(=O)c1c(C)c2cnc(Nc3ccc(N4CCNCC4)cn3)nc2n(C2CCCC2)c1=O [Palbociclib] (partner 0.5 µM)
How it was run: (§1)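 The day after seeding in 1536-well plates, lung cancer cell lines were treated by pin tool with a single drug, or with a fixed anchor-drug dose together with five library-drug doses (not always all listed) in √10 steps. After 5 days, a combined fix-and-stain solution (final 0.05% Triton X-100, 1% formaldehyde, 1 ug/ml Hoechst) was added. Nuclei counted on 4× images gave relative viability as treated counts over vehicle counts, reported as the median of duplicate plates.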

Tivantinib + Tozasertib = compound: O=C1NC(=O)[C@@H](c2cn3c4c(cccc24)CCC3)[C@@H]1c1c[nH]c2ccccc12 [Tivantinib] + Cc1cc(Nc2cc(N3CCN(C)CC3)nc(Sc3ccc(NC(=O)C4CC4)cc3)n2)n[nH]1 [Tozasertib] (partner 0.1 µM)
How it was run: as §1

Tivantinib + Alpelisib = compound: O=C1NC(=O)[C@@H](c2cn3c4c(cccc24)CCC3)[C@@H]1c1c[nH]c2ccccc12 [Tivantinib] + Cc1nc(NC(=O)N2CCC[C@H]2C(N)=O)sc1-c1ccnc(C(C)(C)C(F)(F)F)c1 [Alpelisib] (partner 2 µM)
How it was run: as §1

Tivantinib + Phenformin = compound: O=C1NC(=O)[C@@H](c2cn3c4c(cccc24)CCC3)[C@@H]1c1c[nH]c2ccccc12 [Tivantinib] + N=C(N)NC(=N)NCCc1ccccc1 [Phenformin] (partner 250 µM)
How it was run: as §1

Cell Line | relative viability (Tivantinib + Palbociclib; first compound 0.01 µM) | relative viability (Tivantinib + Palbociclib; first compound 0.03162 µM) | relative viability (Tivantinib + Palbociclib; first compound 0.1 µM) | relative viability (Tivantinib + Palbociclib; first compound 0.3162 µM) | relative viability (Tivantinib + Tozasertib; first compound 0.01 µM) | relative viability (Tivantinib + Tozasertib; first compound 0.03162 µM) | relative viability (Tivantinib + Tozasertib; first compound 0.1 µM) | relative viability (Tivantinib + Tozasertib; first compound 0.3162 µM) | relative viability (Tivantinib + Alpelisib; first compound 0.01 µM) | relative viability (Tivantinib + Alpelisib; first compound 0.03162 µM) | relative viability (Tivantinib + Alpelisib; first compound 0.1 µM) | relative viability (Tivantinib + Alpelisib; first compound 0.3162 µM) | relative viability (Tivantinib + Phenformin; first compound 0.01 µM) | relative viability (Tivantinib + Phenformin; first compound 0.03162 µM) | relative viability (Tivantinib + Phenformin; first compound 0.1 µM) | relative viability (Tivantinib + Phenformin; first compound 0.3162 µM)
201T | 0.368 | 0.386 | 0.364 | 0.348 | 0.985 | 0.897 | 0.919 | 0.88 | 0.982 | 1 | 0.999 | 0.981 | 0.421 | 0.458 | 0.415 | 0.451
A549 |  |  |  |  |  |  |  |  | 0.769 | 0.818 | 0.708 | 0.79 | 0.158 | 0.169 | 0.146 | 0.263
A-427 | 0.547 | 0.551 | 0.484 | 0.507 | 0.21 | 0.2 | 0.198 | 0.169 | 1.12 | 1.12 | 1.1 | 0.973 | 0.378 | 0.391 | 0.325 | 0.304
ABC-1 | 0.689 | 0.567 | 0.577 | 0.46 | 0.209 | 0.155 | 0.215 | 0.223 | 0.984 | 0.995 | 0.742 | 0.825 | 0.23 | 0.246 | 0.201 | 0.228
BEN | 0.446 | 0.474 | 0.508 | 0.447 | 0.529 | 0.549 | 0.574 | 0.537 | 1.02 | 0.837 | 0.893 | 0.735 | 0.29 | 0.258 | 0.254 | 0.26
CAL-12T | 0.409 | 0.345 | 0.347 | 0.185 | 0.416 | 0.337 | 0.259 | 0.293 | 1.19 | 1.32 | 1.09 | 0.8 | 0.639 | 0.529 | 0.582 | 0.259
COR-L23 | 0.343 | 0.304 | 0.268 | 0.325 | 0.185 | 0.188 | 0.184 | 0.234 | 0.864 | 0.754 | 0.671 | 0.905 | 0.453 | 0.416 | 0.415 | 0.508
COR-L 105 | 0.441 | 0.385 | 0.436 | 0.375 | 0.32 | 0.414 | 0.397 | 0.383 | 1 | 0.921 | 0.783 | 0.95 | 0.523 | 0.366 | 0.401 | 0.369
Calu-6 |  |  |  |  |  |  |  |  | 0.987 | 1.03 | 1.02 | 0.955 |  |  |  | 
ChaGo-K-1 | 0.95 | 0.946 | 0.93 | 0.925 | 0.205 | 0.219 | 0.218 | 0.218 |  |  |  |  | 0.586 | 0.442 | 0.483 | 0.542
EBC-1 |  |  |  |  |  |  |  |  | 0.948 | 0.865 | 0.841 | 0.719 |  |  |  | 
EKVX | 0.408 | 0.446 | 0.381 | 0.174 | 0.388 | 0.346 | 0.421 |  | 0.912 | 0.785 | 0.888 | 0.239 | 0.218 | 0.256 | 0.243 | 
EMC-BAC-2 | 0.518 | 0.512 | 0.503 | 0.527 | 0.276 | 0.271 | 0.136 | 0.261 | 0.792 | 0.718 | 0.705 | 0.656 | 0.566 | 0.453 | 0.528 | 0.528
EPLC-272H | 0.298 | 0.323 | 0.308 | 0.273 | 0.206 | 0.268 | 0.283 | 0.152 | 0.975 | 0.922 | 0.836 | 0.672 | 0.248 | 0.294 | 0.296 | 0.0595
H3255 | 0.298 | 0.303 | 0.331 |  | 0.62 | 0.594 | 0.535 |  | 0.659 | 0.679 | 0.75 |  | 0.315 | 0.357 | 0.355 | 
HARA | 0.259 | 0.249 | 0.246 | 0.193 | 0.122 | 0.12 | 0.104 | 0.0992 | 0.962 | 0.737 | 0.827 | 0.431 | 0.418 | 0.417 | 0.416 | 0.373
HCC-15 | 0.724 | 0.761 | 0.638 | 0.852 | 0.463 | 0.442 | 0.409 | 0.335 | 0.942 | 0.832 | 0.799 | 0.996 | 0.476 | 0.411 | 0.478 | 0.479
HCC-44 | 0.946 | 0.953 | 0.883 | 0.945 | 0.968 | 0.712 | 0.887 | 0.275 | 0.844 | 0.703 | 0.858 | 0.793 | 0.325 | 0.171 | 0.225 | 0.215
HCC-78 | 0.49 | 0.445 | 0.448 | 0.426 | 0.443 | 0.437 | 0.405 | 0.277 | 0.412 | 0.306 | 0.34 | 0.204 | 0.682 | 0.711 | 0.689 | 0.533
HCC-366 | 0.434 | 0.362 | 0.399 | 0.337 | 0.103 | 0.114 | 0.115 | 0.0949 | 0.432 | 0.35 | 0.421 | 0.419 | 0.63 | 0.637 | 0.598 | 0.635
HCC-827 | 0.458 | 0.531 | 0.487 |  | 0.388 | 0.402 | 0.48 | 0.312 | 1.04 | 1.03 | 0.922 | 0.719 | 0.338 | 0.466 | 0.379 | 0.166
HOP-62 | 0.454 | 0.399 | 0.425 | 0.466 | 0.383 | 0.352 | 0.385 | 0.377 | 1.04 |  | 0.648 | 0.923 | 0.708 | 0.524 | 0.65 | 0.821
IA-LM |  |  |  |  |  |  |  |  | 0.878 | 0.653 | 0.853 | 0.815 |  |  |  | 
